Reference: patent US20260365628A1, “SUBSTITUTED 3,4-DIHYDROQUINOLINONE INHIBITORS OF TSHR” (Septerna, Inc., priority 2022, published 2026)

Each compound was assayed against T1, hTSHR (Homo sapiens, UniProt P16473) (assay: hTSHR TR-FRET cAMP Assay (inhibition of M22-stimulated cAMP production)). Conditions: Expi293F Inducible cells stably expressing hTSHR; cAMP HTRF; stimulated with EC80 of anti-TSHR antibody M22; 15 min compound preincubation, 30 min at 37° C.; read-out: Activity (IC50 bins).
T1 construct: expressed in transfected cells
T1 sequence (P16473 21-764): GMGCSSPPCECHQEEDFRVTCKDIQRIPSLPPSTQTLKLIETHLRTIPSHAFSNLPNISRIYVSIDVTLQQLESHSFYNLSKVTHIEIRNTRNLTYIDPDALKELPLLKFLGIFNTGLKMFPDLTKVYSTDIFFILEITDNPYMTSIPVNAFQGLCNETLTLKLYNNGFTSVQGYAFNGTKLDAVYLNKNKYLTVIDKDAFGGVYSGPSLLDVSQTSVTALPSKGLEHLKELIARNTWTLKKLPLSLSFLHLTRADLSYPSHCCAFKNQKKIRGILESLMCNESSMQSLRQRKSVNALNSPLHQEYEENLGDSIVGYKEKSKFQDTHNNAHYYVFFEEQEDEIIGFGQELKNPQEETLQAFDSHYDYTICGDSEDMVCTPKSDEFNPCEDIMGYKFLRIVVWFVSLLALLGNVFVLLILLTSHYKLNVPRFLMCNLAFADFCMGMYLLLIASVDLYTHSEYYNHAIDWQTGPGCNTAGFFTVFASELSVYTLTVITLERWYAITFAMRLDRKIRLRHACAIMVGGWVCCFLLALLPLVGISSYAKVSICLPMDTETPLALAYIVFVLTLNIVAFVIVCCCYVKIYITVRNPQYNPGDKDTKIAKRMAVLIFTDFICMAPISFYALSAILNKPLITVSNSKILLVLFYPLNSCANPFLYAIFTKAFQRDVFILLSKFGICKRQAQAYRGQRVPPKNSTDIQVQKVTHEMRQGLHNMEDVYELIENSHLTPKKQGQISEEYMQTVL
Type: cell-based
How it was run: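 Readout was a cAMP HTRF ratio of 655/620 nm after lysis, scaled between the EC80 M22 signal (0% inhibition) and no-agonist vehicle (100%). Frozen induced Expi293F-hTSHR cells saw test compounds (0.5% DMSO) for 15 min at 37 °C before 30 min of M22 stimulation at EC80.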

First: C[C@@H](c1cccc(OC(F)(F)F)c1)n1c(=O)cnc2cc(NC(=O)CCc3cccc(C(F)(F)F)c3)ccc21 [Example 202, (S)-N-(2-oxo-1-(1-(3-(trifluoromethoxy)phenyl)ethyl)-1,2-dihydroquinoxalin-6-yl)-3-(3-(trifluoromethyl)phenyl) propanamide]
Second: C[C@@H](c1cccc([C@@H](O)C(F)(F)F)c1)n1c(=O)cnc2cc(NC(=O)NC(C)(C)C)ccc21 [Example 155, 1-(tert-butyl)-3-(2-oxo-1-((S)-1-(3-((S)-2,2,2-trifluoro-1-hydroxyethyl)phe-nyl)ethyl)-1,2-dihydroquinoxalin-6-yl)urea]
The IC50 of the first is lower: < 100 nM for the first, 100 to 1000 nM for the second. The first is the more potent here.

`C[C@@H](c1cc(Cl)ccc1F)n1c(=O)cnc2cc(NC(=O)NC(C)(C)C)ccc21` [Example 139, (S)-1-(tert-butyl)-3-(1-(1-(5-chloro-2-fluorophenyl)ethyl)-2-oxo-1,2-dihydroquinoxalin-6-yl)urea] and `C[C@@H](c1cc(Cl)ccc1Cl)n1c(=O)cnc2cc(NC(=O)NC(C)(C)C)ccc21` [Example 130, (S)-1-(tert-butyl)-3-(1-(1-(2,5-dichlorophenyl)ethyl)-2-oxo-1,2-dihydroquinoxalin-6-yl)urea] fall in the same range of IC50: 100 to 1000 nM for the first, 100 to 1000 nM for the second.

First: C[C@@H](c1ccccc1)N1C(=O)CCc2nc(NC(=O)NC(C)(C)C)c(C(F)(F)F)cc21 [Example 377, (S)-1-(tert-butyl)-3-(6-oxo-5-(1-phenylethyl)-3-(trifluoromethyl)-5,6,7,8-tetrahydro-1,5-naphthyridin-2-yl)urea]
Second: C[C@@H](c1cccc(C(F)(F)F)c1)N1C(=O)CCc2nc(NC(=O)NC(C)(C)C)ccc21 [Example 282, (S)-1-(tert-butyl)-3-(6-oxo-5-(1-(3-(trifluoromethyl)phenyl)ethyl)-5,6,7,8-tetrahydro-1,5-naphthyridin-2-yl)urea]
The IC50 of the first is lower: < 100 nM for the first, 100 to 1000 nM for the second. The first is the more potent here.

`CC(c1cc(C(F)(F)F)ccn1)n1c(=O)cnc2cc(NC(=O)NC(C)(C)C)ccc21` (stereo not shown) [Example 253, 1-(tert-butyl)-3-(2-oxo-1-(1-(4-(trifluoromethyl)pyridin-2-yl)ethyl)-1,2-dihydro-quinoxalin-6-yl)urea] and `C[C@@H](c1cccc(CCN(C)C(=O)C(C)(C)O)c1)n1c(=O)cnc2cc(NC(=O)NC(C)(C)C)ccc21` [Example 120, (S)-N-(3-(1-(6-(3-(tert-butyl)ureido)-2-oxoquinoxalin-1 (2H)-yl)ethyl)phenethyl)-2-hydroxy-N,2-dimethylpropanamide] cannot be ordered by IC50: > 1000 nM for the first, > 1000 nM for the second.

`Cc1ccc(C#N)c(CN2C(=O)CCc3cc(NC(=O)NC(C)(C)C)ccc32)c1` [Example 266, 3-tert-butyl-1-{1-[(2-cyano-5-methylphenyl)methyl]-2-oxo-3,4-dihydroquinolin-6-yl}urea] and `CC(C)(C)NC(=O)Nc1ccc2c(c1)CCC(=O)N2Cc1ccc(C#N)cc1` [Example 17, 1-(tert-butyl)-3-(1-(4-cyanobenzyl)-2-oxo-1,2,3,4-tetrahydroquinolin-6-yl)urea] cannot be ordered by IC50: > 1000 nM for the first, > 1000 nM for the second.

`C[C@H]1Oc2c(cc(F)c(NC(=O)NC(C)(C)C)c2F)N(Cc2ccccc2)C1=O` [Example 329, (R)-1-(4-benzyl-6,8-difluoro-2-methyl-3-oxo-3,4-dihydro-2H-benzo[b][1,4]oxazin-7-yl)-3-(tert-butyl)urea] and `C[C@H]1Oc2cc(NC(=O)NC(C)(C)C)c(F)cc2N(Cc2ccccc2)C1=O` [Example 326, (R)-1-(4-benzyl-6-fluoro-2-methyl-3-oxo-3,4-dihydro-2H-benzo[b][1,4]oxazin-7-yl)-3-(tert-butyl)urea] fall in the same range of IC50: 100 to 1000 nM for the first, 100 to 1000 nM for the second.

First: C[C@H]1Oc2cc(NC(=O)NC3CCC(F)(F)CC3)ccc2N([C@@H](C)c2ccccc2)C1=O [Example 258, 1-(4,4-difluoro-cyclohexyl)-3-((R)-2-methyl-3-oxo-4-((S)-1-phenyl-ethyl)-3,4-dihydro-2H-benzo[b][1,4]oxazin-7-yl)urea]
Second: C[C@H]1Oc2cc(NC(=O)NC3(C)COC3)ccc2N([C@@H](C)c2ccccc2)C1=O [Example 262, 1-((R)-2-methyl-3-oxo-4-((S)-1-phenylethyl)-3,4-dihydro-2H-benzo [b][1,4]oxazin-7-yl)-3-(3-methyl-oxetan-3-yl)urea]
The IC50 of the first is lower: 100 to 1000 nM for the first, > 1000 nM for the second.

`C[C@H]1Oc2c(cc(F)c(NC(=O)NC(C)(C)C)c2F)N(Cc2cccc(OC(F)F)c2)C1=O` [Example 335, 3-tert-butyl-1-[(2R)-4-{[3-(difluoromethoxy)phenyl]methyl}-6,8-difluoro-2-methyl-3-oxo-2H-1,4-benzoxazin-7-yl]urea] and `C[C@H]1Oc2cc(NC(=O)NC(C)(C)C)ccc2N(Cc2cccc(C(F)(F)F)c2)C1=O` [Example 81] cannot be ordered by IC50: < 100 nM for the first, < 100 nM for the second.

`C[C@H]1Oc2cc(NC(=O)NC3CC4CC4C3)ccc2N(Cc2cccc(C(F)(F)F)n2)C1=O` (stereo partly drawn) [Example 230, 1-(bicyclo[3.1.0]hexan-3-yl)-3-((R)-2-methyl-3-oxo-4-((6-(trifluoromethyl)pyridin-2-yl)methyl)-3,4-dihydro-2H-benzo[b][1,4]oxazin-7-yl)urea] and `COCC1(NC(=O)Nc2ccc3c(c2)O[C@H](C)C(=O)N3Cc2cccc(C(F)(F)F)n2)CCC1` [Example 233, (R)-1-(1-(methoxymethyl)cyclobutyl)-3-(2-methyl-3-oxo-4-((6-(trifluoromethyl)pyridin-2-yl)methyl)-3,4-dihydro-2H-benzo[b][1,4]oxazin-7-yl)urea] fall in the same range of IC50: 100 to 1000 nM for the first, 100 to 1000 nM for the second.

`CC1Oc2cc(NC(=O)NC(C)(C)C)ccc2N(Cc2cccc(Cl)c2)C1=O` (single isomer, unassigned) [Example 43] and `C[C@H]1Oc2cc(NC(=O)NC(C)(C)C)ccc2N(Cc2ccccc2)C1=O` [Example 41, (R)-1-(4-benzyl-2-methyl-3-oxo-3,4-dihydro-2H-benzo[b][1,4]oxazin-7-yl)-3-(tert-butyl)urea] cannot be ordered by IC50: < 100 nM for the first, < 100 nM for the second.

`CC(C)(C)NC(=O)Nc1ccc2c(n1)CCC(=O)N2Cc1cccc(C(F)(F)F)c1` [Example 274, 1-(tert-butyl)-3-(6-oxo-5-(3-(trifluoromethyl)benzyl)-5,6,7,8-tetrahydro-1,5-naphthyridin-2-yl)urea] and `C[C@H]1Oc2cc(NC(=O)NC(C)(C)C)ccc2N(Cc2cccc([C@@H](O)C(F)(F)F)c2)C1=O` [Example 174, 1-(tert-butyl)-3-((R)-2-methyl-3-oxo-4-(3-((R)-2,2,2-trifluoro-1-hydroxyethyl)benzyl)-3,4-dihydro-2H-benzo [b][1,4]oxazin-7-yl)urea] fall in the same range of IC50: 100 to 1000 nM for the first, 100 to 1000 nM for the second.

Compared with `C[C@@H](c1ccccc1)N1C(=O)N(C)Cc2cc(NC(=O)NC(C)(C)C)ccc21` [Example 45, 3-tert-butyl-1-{3-methyl-2-oxo-1-[(1S)-1-phenylethyl]-4H-quinazolin-6-yl}urea], `C[C@@H]1Oc2cc(NC(=O)NC(C)(C)C)ccc2N(Cc2cc(C(F)(F)F)ccc2C#N)C1=O` [Example 84, (S)-1-(tert-butyl)-3-(4-(2-cyano-5-(trifluoromethyl)benzyl)-2-methyl-3-oxo-3,4-dihydro-2H-benzo[b][1,4]oxazin-7-yl)urea] is higher in IC50: < 100 nM for the first, 100 to 1000 nM for the second.

`C[C@H]1Oc2cc(NC(=O)NC(C)(C)C)ccc2N(Cc2cncc(C(F)(F)F)n2)C1=O` [Example 169, (R)-1-(tert-butyl)-3-(2-methyl-3-oxo-4-((6-(trifluoro-methyl)pyrazin-2-yl)methyl)-3,4-dihydro-2H-benzo [b][1,4]oxazin-7-yl)urea] gave an IC50 of 100 to 1000 nM.
